Test results: ChEMBL document CHEMBL4837268, “Influence of Linker Attachment Points on the Stability and Neosubstrate Degradation of Cereblon Ligands” (ACS Med Chem Lett, 2021)
Activity calls are given as the source filed them. The calls are words filed in the database; no cut-off is given here.

Key:
[1] = Stability of the compound in acetonitrile/buffer mixture at pH 7.4 assessed as parent compound remaining measured after 24 hrs by HPLC analysis; type: physicochemical; details: read-out: Stabilty
[2] = physchem; details: buffer, pH 7.4
Description: Lipophilicity, logD of the compound at pH 7.4 by HPLC analysis

[3] = target: T1, Cereblon/Ikaros (Homo sapiens) (UniProt Q96SW2+Q13422); assay: Protac activity at CRBN/IKZF1 in human MM1.S cells assessed as induction of IKZF1 degradation at 1 uM incubated for 6 hrs relative to control; type: cell-based
[4] = Stability in human plasma assessed as half life measured up tp 120 mins by HPLC analysis; type: ADME, cell-free
[5] = test system: MM1.S; assay: Cytotoxicity against human MM1.S cells assessed as effect on cell viability at 0.1 to 10 uM incubated for 72 hrs by luminescence based analysis; type: functional; details: dose 0.1-10 µM
[6] = target: Protein cereblon/Cyclin-dependent kinase 4 (Homo sapiens) (UniProt P11802+Q96SW2); assay: Protac activity at CRBN/CDK4 in human MM1.S cells assessed as protein levels at 1 uM measured after 72 hrs by Western blot analysis relative to control; type: cell-based
Sequence of Protein cereblon/Cyclin-dependent kinase 4 (Homo sapiens) (P11802 2-303 limits assumed): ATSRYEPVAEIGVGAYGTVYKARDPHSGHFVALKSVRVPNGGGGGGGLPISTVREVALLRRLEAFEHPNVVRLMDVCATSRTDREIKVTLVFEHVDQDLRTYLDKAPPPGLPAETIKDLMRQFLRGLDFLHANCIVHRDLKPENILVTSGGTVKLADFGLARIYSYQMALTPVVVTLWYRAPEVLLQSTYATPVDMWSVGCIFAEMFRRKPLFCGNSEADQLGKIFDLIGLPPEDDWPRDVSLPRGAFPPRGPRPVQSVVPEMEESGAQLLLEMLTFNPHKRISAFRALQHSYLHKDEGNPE
Sequence of Protein cereblon/Cyclin-dependent kinase 4 (Homo sapiens) (Q96SW2 whole entry partner): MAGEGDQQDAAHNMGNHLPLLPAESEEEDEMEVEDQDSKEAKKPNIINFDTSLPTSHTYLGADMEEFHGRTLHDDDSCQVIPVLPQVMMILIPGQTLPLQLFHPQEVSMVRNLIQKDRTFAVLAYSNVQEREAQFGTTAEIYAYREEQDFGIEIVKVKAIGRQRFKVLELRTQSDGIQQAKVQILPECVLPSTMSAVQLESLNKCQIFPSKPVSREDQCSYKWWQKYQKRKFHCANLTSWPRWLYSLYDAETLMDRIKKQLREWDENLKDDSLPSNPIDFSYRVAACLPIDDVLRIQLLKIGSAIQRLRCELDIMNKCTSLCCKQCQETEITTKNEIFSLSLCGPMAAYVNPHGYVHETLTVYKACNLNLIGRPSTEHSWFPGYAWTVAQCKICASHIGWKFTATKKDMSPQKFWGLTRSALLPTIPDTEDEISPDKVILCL

[7] = target: Protein cereblon/Zinc finger protein Aiolos (Homo sapiens) (UniProt Q96SW2+Q9UKT9); assay: Protac activity at CRBN/IKZF3 in human MM1.S cells assessed as protein levels at 1 uM measured after 72 hrs by Western blot analysis relative to control; type: cell-based
Sequence of Protein cereblon/Zinc finger protein Aiolos (Homo sapiens) (Q96SW2 whole entry, looked up): as the sequence (Q96SW2 whole entry partner) above
Sequence of Protein cereblon/Zinc finger protein Aiolos (Homo sapiens) (Q9UKT9 whole entry, looked up): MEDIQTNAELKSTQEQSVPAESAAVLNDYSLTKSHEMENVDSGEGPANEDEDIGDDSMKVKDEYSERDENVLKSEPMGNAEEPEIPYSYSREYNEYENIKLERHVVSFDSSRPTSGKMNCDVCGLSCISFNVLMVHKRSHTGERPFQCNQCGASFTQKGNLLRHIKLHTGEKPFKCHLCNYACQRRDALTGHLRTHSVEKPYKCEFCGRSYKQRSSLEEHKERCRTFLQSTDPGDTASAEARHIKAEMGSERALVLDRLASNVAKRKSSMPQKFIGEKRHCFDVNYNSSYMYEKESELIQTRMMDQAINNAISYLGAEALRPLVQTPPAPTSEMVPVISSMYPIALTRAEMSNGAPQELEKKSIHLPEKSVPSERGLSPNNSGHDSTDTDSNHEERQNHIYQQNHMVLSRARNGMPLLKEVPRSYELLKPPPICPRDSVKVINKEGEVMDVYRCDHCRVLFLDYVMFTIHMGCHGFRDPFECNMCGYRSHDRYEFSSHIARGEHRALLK

[8] = target: T1, Cereblon/Ikaros (Homo sapiens); assay: Protac activity at CRBN/IKZF1 in human MM1.S cells assessed as protein levels at 1 uM measured after 72 hrs by Western blot analysis relative to control; type: cell-based
[9] = Protac activity at CRBN/IKZF3 in human MM1.S cells assessed as induction of IKZF3 degradation at 0.1 to 1 uM measured after 16 hrs by Western blotting analysis; details: dose 0.1-1 µM

SMILES	remaining at 24 h [1] [%]	logD [2]	Activity [3] [%]	further results
O=C1CCC(N2C(=O)c3cccc(NCCOCCOCCOCc4ccccc4)c3C2=O)C(=O)N1 (centres undefined)	80	3.1	64	half-life [4]: > 2 h
O=C1CCC(N2Cc3c(OCCOCCOCCOCc4ccccc4)cccc3C2=O)C(=O)N1 (centres undefined)	78		22	
O=C1CCC(N2C(=O)c3ccc(NC(=O)COCCOCCOCc4ccccc4)cc3C2=O)C(=O)N1 (centres undefined)	11	2.3	1	
O=C1CCC(N2C(=O)c3cccc(C#CCOCCOCCOCc4ccccc4)c3C2=O)C(=O)N1 (centres undefined)	6	3.2		
CC(=O)c1c(C)c2cnc(Nc3ccc(N4CCN(CC(=O)NCCOCCOCCOCCNc5cccc6c5C(=O)N(C5CCC(=O)NC5=O)C6=O)CC4)cn3)nc2n(C2CCCC2)c1=O (centres undefined)				Activity [5]: Active; Activity [6]: 26%; Activity [7]: 2%; Activity [8]: 2%
O=C1CCC(N2C(=O)c3cccc(C(=O)NCCOCCOCCOCc4ccccc4)c3C2=O)C(=O)N1 (centres undefined)	3	1.9		
O=C(COCCOCCOCc1ccccc1)NCc1ccc2c(c1)C(=O)N(C1CCC(=O)NC1=O)C2=O (centres undefined)	16	1.8	0	
O=C1NCCCC1N1C(=O)c2cccc(OCCOCCOCCOCc3ccccc3)c2C1=O (centres undefined)	99			
O=C(COCCOCCOCc1ccccc1)NCc1cccc2c1C(=O)N(C1CCC(=O)NC1=O)C2=O (centres undefined)	21	2	73	half-life [4]: > 2 h
CC(=O)c1c(C)c2cnc(Nc3ccc(N4CCN(CC(=O)NCCOCCOCCOCC(=O)Nc5cccc6c5CN(C5CCC(=O)NC5=O)C6=O)CC4)cn3)nc2n(C2CCCC2)c1=O (centres undefined)				Activity [6]: 56%; Activity [7]: > 95%; Activity [9]: inactive; Activity [8]: > 95%
O=C1CCC(N2Cc3cc(OCCOCCOCCOCc4ccccc4)ccc3C2=O)C(=O)N1 (centres undefined)	73	2.2	16	half-life [4]: > 2 h
O=C1CCC(N2C(=O)c3ccc(OCCOCCOCCOCc4ccccc4)cc3C2=O)C(=O)N1 (centres undefined)	30	2.9	0	half-life [4]: > 2 h
O=C1CCC(N2Cc3cc(NC(=O)COCCOCCOCc4ccccc4)ccc3C2=O)C(=O)N1 (centres undefined)	73	1.8	6	
O=C(CNc1ccc2c(c1)C(=O)N(C1CCC(=O)NC1=O)C2=O)NCCOCCOCCOCc1ccccc1 (centres undefined)	56	1.8	6	
O=C1CCC(N2C(=O)c3cccc(OCCOCCOCCOCc4ccccc4)c3C2=O)C(=O)N1 (centres undefined)	46	2.6	5	
O=C(COc1ccc2c(c1)C(=O)N(C1CCC(=O)NC1=O)C2=O)NCCOCCOCCOCc1ccccc1 (centres undefined)	15	2	0	
O=C1c2cccc(OCCOCCOCCOCc3ccccc3)c2C(=O)N1C1CCCCC1	90			
O=C1CCC(N2Cc3cc(NCCOCCOCCOCc4ccccc4)ccc3C2=O)C(=O)N1 (centres undefined)	79	2.1	0	
O=C(CNc1cccc2c1C(=O)N(C1CCC(=O)NC1=O)C2=O)NCCOCCOCCOCc1ccccc1 (centres undefined)	68	2.1	29	half-life [4]: > 2 h
CC(=O)c1c(C)c2cnc(Nc3ccc(N4CCN(CC(=O)NCCOCCOCCOCC(=O)NCc5cccc6c5C(=O)N(C5CCC(=O)NC5=O)C6=O)CC4)cn3)nc2n(C2CCCC2)c1=O (centres undefined)				Activity [5]: Active; Activity [6]: 68%; Activity [7]: > 95%; Activity [9]: Active; Activity [8]: > 95%
CC(=O)c1c(C)c2cnc(Nc3ccc(N4CCN(CC(=O)NCCOCCOCCOCCNC(=O)COc5cccc6c5C(=O)N(C5CCC(=O)NC5=O)C6=O)CC4)cn3)nc2n(C2CCCC2)c1=O (centres undefined)				Activity [6]: 66%; Activity [7]: > 95%; Activity [9]: inactive; Activity [8]: > 95%

Now from value to compound, other results behind:

remaining at 24 h [1] [%]	logD [2]	Activity [3] [%]	SMILES	further results
70	2.6	19	O=C1CCC(N2C(=O)c3ccc(NCCOCCOCCOCc4ccccc4)cc3C2=O)C(=O)N1 (centres undefined)	
79	1.6	0	O=C1CCC(N2Cc3c(NC(=O)COCCOCCOCc4ccccc4)cccc3C2=O)C(=O)N1 (centres undefined)	half-life [4]: 1.45 h
17	2	0	O=C(COc1cccc2c1C(=O)N(C1CCC(=O)NC1=O)C2=O)NCCOCCOCCOCc1ccccc1 (centres undefined)	
1	3.3		O=C1CCC(N2C(=O)c3ccc(C#CCOCCOCCOCc4ccccc4)cc3C2=O)C(=O)N1 (centres undefined)	
1	1.9		O=C1CCC(N2C(=O)c3ccc(C(=O)NCCOCCOCCOCc4ccccc4)cc3C2=O)C(=O)N1 (centres undefined)	
19			O=C1CCC(N2C(=O)c3ccccc3C2=O)C(=O)N1CCOCCOCCOCc1ccccc1 (centres undefined)	
15	2.6	14	O=C1CCC(N2C(=O)c3cccc(NC(=O)COCCOCCOCc4ccccc4)c3C2=O)C(=O)N1 (centres undefined)	half-life [4]: 1.97 h
74	2.4	5	O=C1CCC(N2Cc3c(NCCOCCOCCOCc4ccccc4)cccc3C2=O)C(=O)N1 (centres undefined)	half-life [4]: > 2 h
